Results taken from ChEMBL document CHEMBL3044864, “Synthesis and in vitro anticancer activities of novel aryl-naphthalene lignans” (Med Chem Res, 2012).
Active and inactive are the calls of the source. No cut-off for these calls is given here.

How the values were obtained:
KB [1] = experiment: Cytotoxicity against Homo sapiens (human) KB cells after 72 hr by MTT assay; type: functional, cell-based
SW480 = experiment: Cytotoxicity against Homo sapiens (human) SW480 cells after 72 hr by MTT assay; type: functional, cell-based; conditions: SW480, 72 h
A549 = experiment: Cytotoxicity against Homo sapiens (human) A549 cells after 72 hr by MTT assay; type: functional, cell-based; conditions: A549, 72 h
KB [2] = experiment: Induction of apoptosis in Homo sapiens (human) KB cells assessed as downregulation of bcl2 expression at 5 to 15 uM after 72 hr by Western blot analysis; type: functional, cell-based
KB [3] = experiment: Induction of apoptosis in Homo sapiens (human) KB cells assessed as upregulation of bax expression at 5 to 15 uM after 72 hr by Western blot analysis; type: functional, cell-based
KB [4] = experiment: Induction of apoptosis in Homo sapiens (human) KB cells assessed as nuclear condensation at 5 to 10 uM after 72 hr using Hoechst/PI staining by fluorescence microscopy; type: functional, cell-based
KB [5] = experiment: Induction of apoptosis in Homo sapiens (human) KB cells assessed as increase in cleaved caspase 3 level after 72 hr by Western blot analysis; type: functional, cell-based
KB [6] = experiment: Induction of apoptosis in Homo sapiens (human) KB cells assessed as appearance of apoptotic bodies n at 5 to 10 uM after 72 hr using AO/EB staining by fluorescence microscopy; type: functional, cell-based
KB [7] = experiment: Induction of apoptosis in Homo sapiens (human) KB cells assessed as nuclear fragmentation at 5 to 10 uM after 72 hr using AO/EB staining by fluorescence microscopy; type: functional, cell-based
KB [8] = experiment: Induction of apoptosis in Homo sapiens (human) KB cells assessed as early apoptic cells with nuclear condensation at 5 to 10 uM after 72 hr using AO/EB staining by fluorescence microscopy; type: functional, cell-based
Leishmania = experiment: Antileishmanial activity against Leishmania promastigotes; type: functional, organism-based
[9] = Antiproliferative activity against Homo sapiens (human) monocytes; type: cell-based; conditions: Monocyte

Compound	IC50 (KB [1]) [µM]	IC50 (SW480) [µM]	IC50 (A549) [µM]	further results
O=C1OCc2c1c(-c1ccccc1)c1cc3c(cc1c2O)OCO3	> 100	> 100	> 100	–
O=C1OCc2c1c(-c1ccc3c(c1)OCO3)c1cc3c(cc1c2O)OCO3 [TAIWANIN E]	19.7	> 100	53.3	–
COc1ccc(-c2c3c(c(O)c4cc5c(cc24)OCO5)COC3=O)cc1	> 100	> 100	35.6	–
Cc1ccc(-c2c3c(c(O)c4cc5c(cc24)OCO5)COC3=O)cc1	18.9	4	30	Activity (KB [2]): Active; Activity (KB [3]): Active; Activity (KB [4]): Active; Activity (KB [5]): Dose-dependent effect; Activity (KB [6]): Active; Activity (KB [7]): Active; Activity (KB [8]): Active
COc1cc(-c2c3c(c(O)c4cc5c(cc24)OCO5)COC3=O)cc(OC)c1OC [DEHYDROPODOPHYLLOTOXIN]	29.1	> 100	107	–
COc1ccccc1-c1c2c(c(O)c3cc4c(cc13)OCO4)COC2=O	> 100	21.1	> 100	–
COc1cccc(-c2c3c(c(O)c4cc5c(cc24)OCO5)COC3=O)c1	> 100	> 100	68.6	–
COc1cc([C@@H]2c3cc4c(cc3[C@@H](O[C@@H]3O[C@@H]5CO[C@@H](C)O[C@H]5[C@H](O)[C@H]3O)[C@H]3COC(=O)[C@H]23)OCO4)cc(OC)c1O [ETOPOSIDE]	8.3	6.4	3.9	–
COc1ccc(OC)c(-c2c3c(c(O)c4cc5c(cc24)OCO5)COC3=O)c1	> 100	> 100	> 100	–
COc1cc(OC)cc(-c2c3c(c(O)c4cc5c(cc24)OCO5)COC3=O)c1	33.3	> 100	> 100	–
COc1ccc(-c2c3c(c(O)c4cc5c(cc24)OCO5)COC3=O)cc1OC	45.2	> 100	39.5	–
COc1cc2c(O)c3c(c(-c4ccc5c(c4)OCO5)c2cc1OC)C(=O)OC3 [DIPHYLLIN]	5.3	3.4	8	IC50 (Leishmania): 14.4 µM; IC50 [9]: 35.2 µM
